Measured values taken from publication PMC3828334, “Tumor Cell Death Mediated by Peptides That Recognize Branched Intermediates of DNA Replication and Repair” (PLoS ONE, 2013).
Several values for one entry are separate records, joined by “and”; a condition that tells them apart may be missing. Equal entries are not always repeated. Positions of bridges follow the written chain, without caps; N, C: chain ends. Non-standard residues stand in square brackets, D forms with d. Residues, ends and D or L forms follow the SMILES beside them. Chains are numbered I, II in the order given.

Legend:
[1] = system: 53BP1 in PC3 cells; test: 53BP1 foci by fluorescence microscopy; type: cell-based; details: PC3, 48 h
Protocol: 200,000 PC3 cells were plated on cover-slips (Fisherbrand) mounted on each well of the 12-well dishes and allowed to attach overnight at 37°C incubator with 5% CO2. The cells were treated with 50, 100, 150, or 200 µM of wrwycr, or 1, 5, 10, 25, or 50 µM of wrwyrggrywrw for 48 h. […] The samples were probed with 1∶500 diluted mouse anti-γH2AX antibody (Millipore) or 1∶1000 diluted rabbit anti-53BP1 (Novus-Biologicals) with overnight incubation followed by Dylight anti-mouse or anti-rabbit secondary antibodies (Biolegend) respectively. DAPI (5 µg/ml) was used to stain the nucleus. The stained cells on the coverslips were mounted on the glass slides and observed with a Zeiss inverted microscope with AxioVision 4.8 software and using the 100× magnification. Foci of 53BP1 were counted manually and the average number of foci per cell was calculated.

[2] = system: PC3 cells; test: TUNEL assay, PC3; type: cell-based; details: PC3, 150 µM, 48 h
Protocol: 600,000 PC3 cells or 500,000 HeLa cells were plated in 60-mm dishes or 6-well plates respectively to allow them to attach overnight at 37°C with 5% CO2. PC3 cells were subsequently treated with appropriate treatments for 24, 36 and 48 h while HeLa cells were treated with 1 µl of either the caspase inhibitor z-VAD-fmk or z-FA-fmk (both from Biovision), containing appropriate treatments, for 24 h. The cells were fixed with 4% paraformaldehyde for 30 min and permeabilized with 0.1% Triton X-100 in 0.1% sodium citrate buffer for 3 mins. Labeled dUTP were added along with the terminal deoxynucleotidyl transferase dUTP nick end labeling (TUNEL) (TUNEL kit from Roche) as described in the kit. Samples were analyzed using a Becton Dickinson FACS Canto flow cytometer as specified above.

[3] = system: Holliday junctions vs replication forks; details: in vitro; ref [20], [22], [26]; cited from earlier work
Description: Our laboratory previously identified peptides and small molecules that bind to Holliday junctions and replication fork mimics, branched DNA structures that are intermediates in DNA repair [18]–[23]. […] In addition to binding HJs in vitro, peptide wrwycr also binds Holliday junctions in vivo [24] and is synergistically toxic with DNA-damaging agents including mitomycin C, UV, H2O2, and topoisomerase inhibitors in bacteria ([25]; Naili, ...

[4] = system: caspase-3 in PC3 cells; test: Caspase-3 assay (Ac-DEVD-AFC cleavage); type: cell-based; details: PC3, 50–200 µM, 12–48 h
Protocol: 400,000 PC3 cells were plated in a 6-well plate (BD Falcon) at a concentration of 200,000 cells/ml and were allowed to attach overnight at 37°C with 5% CO2 and treated with 50–200 µM wrwycr for 12, 24 or 48 h. The wrwycr-treated cell lysates were incubated with Ac-DEVD (Asp-Glu-Val-Asp)-AFC, a caspase-3 substrate, for 1 h. Activated caspase-3 will cleave between the DEVD and AFC, releasing latter, a fluorogenic compound that can be excited at 400 nm and the resulting emission can be read at 505 nm by the Spectra Max Gemini XS fluorometer plate reader using Softmax Pro version 3.1.2 software. The total protein concentration was calculated for each sample by using BioRad protein assay kit. To normalize the fluorescence reading (RFU) for each sample, the reading for each sample was divided by the corresponding protein concentration of the samples.

[5] = system: Du145 cells; type: cell-based; details: 24 h
[6] = system: PC3 cells; test: Cell cycle analysis (PI, flow cytometry); type: cell-based; details: PC3, 200 µM, 48 h or 72 h, 2 independent experiments; DMSO 14%
Protocol: 600,000 PC3 cells were plated in 60-mm dishes at a concentration of 200,000 cells/ml and allowed to attach before they were serum-starved for 48 h by adding RPMI with no supplemented FBS. The cells were then treated in 100, 150 or 200 µM wrwycr in RPMI supplemented with 10% FBS for either 48 h or 72 h followed by permeabilization with cold 70% ethanol overnight. RNase/PI solution (BD Pharmingen) were added to the cells following the protocol in [33] and incubated for 2.5 h at 37°C and analyzed using the PerCP-Cy5-5 channel in a FACS Canto flow cytometer. The results were analyzed using Flow-Jo software.

[7] = system: PC3 cells; details: 48 h
Protocol: 20,000 PC3 cells were plated overnight in 96 well plates (Costar) at a concentration of 200,000 cells/ml. They are treated with the peptides, doxorubicin, docetaxel alone, or in combination for different time period incubation and the cell viability was determined by MTT assay as described. The percentage survival of the cells with different treatments was calculated using DMSO-vehicle control-treated cells as the standard.

[8] = system: HeLa cells; test: Live/Dead assay by flow cytometry, HeLa; type: cell-based; details: ± standard error, at least 4 replicates
Protocol: PC3 or HeLa cells were seeded at 400,000 or 500,000 cells per well respectively in 6-well tissue culture plates (BD Falcon) and allowed to attach overnight at 37°C with 5% CO2. The cells were incubated with different concentrations of d-wrwycr for 24 or 48 h respectively before the cells were lifted off from the plate. Cell pellets were resuspended in 200 µl of dye solution containing either cell-permeable calcein AM and/or cell-impermeant ethidium homodimer according to the manufacturer's protocol (Live/dead cytotoxicity kit for mammalian cells, Invitrogen and reference). Data were collected in BDFacs Canto and analyzed using FACSDiva software (Becton-Dickenson).

[9] = system: LnCAP cells; type: cell-based; details: 48 h

SMILES: N=C(N)NCCC[C@@H](NC(=O)[C@@H](CSSC[C@@H](NC(=O)[C@@H](Cc1ccc(O)cc1)NC(=O)[C@@H](Cc1c[nH]c2ccccc12)NC(=O)[C@@H](CCCNC(=N)N)NC(=O)[C@H](N)Cc1c[nH]c2ccccc12)C(=O)N[C@H](CCCNC(=N)N)C(N)=O)NC(=O)[C@@H](Cc1ccc(O)cc1)NC(=O)[C@@H](Cc1c[nH]c2ccccc12)NC(=O)[C@@H](CCCNC(=N)N)NC(=O)[C@H](N)Cc1c[nH]c2ccccc12)C(N)=O [wrwycr, Trp-Arg-Trp-Tyr-Cys-Arg] (I: H-[dW][dR][dW][dY][dC][dR]-NH2 / II: H-[dW][dR][dW][dY][dC][dR]-NH2; disulfide I:5-II:5; N-terminus assumed)
- accumulation of 53BP1 foci [1]: accumulation of 53BP1 protein in a dose-dependent manner
- TUNEL positive cell population [2]: 65%
- higher affinity for HJs than replication forks [3]: 2–5 fold
- caspase-3 activation compared to DMSO control [4]: no significant activation of caspase-3
- IC50 [5]: 150 to 200 µM
- percentage of the S phase cellular population [6]: 50%
- IC50 [7]: 100 µM
- Hela population % Dead ([8]; 100 µM wrwycr): 5.4±2.0%
- Hela population %Live ([8]; 100 µM wrwycr): 90.4±2.3%
- Hela population % Dead ([8]; 150 µM wrwycr): 7.8±2.7%
- Hela population %Live ([8]; 150 µM wrwycr): 86.3±2.5%
- Hela population % Dead ([8]; 200 µM wrwycr): 12.7±6.0%
- Hela population %Live ([8]; 200 µM wrwycr): 79% and 79.3±4.5%
- IC50 [9]: 100 to 150 µM
